These results are taken from patent publication US20240270751A1, “Pyrazolopyridinone Compounds” (BeiGene Ltd., priority 2021, published 2024).

The structures appear in SMILES notation.

One test addresses DGKζ (Homo sapiens (Human), UniProt Q13574). The test can be described thus: Biochemical DGK IC50 assay, DGKζ ADP-Glo assay. To be noted: 0.5 nM enzyme, 140 μM ATP, 80 μM DAG; read-out: DGKζ ADP-Glo assay IC50. A digest of the protocol:
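ADP formation measured by ADP-Glo luminescence, with test compounds at final 1.55–10000 nM or 23.3–150000 nM. Enzyme: purified full-length human DGKζ from Sf9 insect cells; substrate: DAG/PS micelles in 25 mM HEPES pH 7.0, 0.5 mM EDTA, octyl glucoside.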
Background: ADP-Glo turns the ADP formed in a reaction into a luminescent signal.

For another test, the target named is DGKα (Homo sapiens (Human), UniProt P23743). Briefly: Biochemical DGK IC50 assay, DGKα ADP-Glo assay. The following applies: 7.5 nM enzyme, 140 μM ATP, 80 μM DAG. The procedure, abridged:
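Compounds at final 1.55˜10000 nM or 23.3˜150000 nM were tested against full-length DGKα. Substrate was lipid micelles of DAG and PS resuspended in 25 mM HEPES pH 7.0 with 0.5 mM EDTA and 160 mM octyl β-D-glucopyranoside. ADP formed was detected by ADP-Glo.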

DGKα, sequence (P23743 whole entry): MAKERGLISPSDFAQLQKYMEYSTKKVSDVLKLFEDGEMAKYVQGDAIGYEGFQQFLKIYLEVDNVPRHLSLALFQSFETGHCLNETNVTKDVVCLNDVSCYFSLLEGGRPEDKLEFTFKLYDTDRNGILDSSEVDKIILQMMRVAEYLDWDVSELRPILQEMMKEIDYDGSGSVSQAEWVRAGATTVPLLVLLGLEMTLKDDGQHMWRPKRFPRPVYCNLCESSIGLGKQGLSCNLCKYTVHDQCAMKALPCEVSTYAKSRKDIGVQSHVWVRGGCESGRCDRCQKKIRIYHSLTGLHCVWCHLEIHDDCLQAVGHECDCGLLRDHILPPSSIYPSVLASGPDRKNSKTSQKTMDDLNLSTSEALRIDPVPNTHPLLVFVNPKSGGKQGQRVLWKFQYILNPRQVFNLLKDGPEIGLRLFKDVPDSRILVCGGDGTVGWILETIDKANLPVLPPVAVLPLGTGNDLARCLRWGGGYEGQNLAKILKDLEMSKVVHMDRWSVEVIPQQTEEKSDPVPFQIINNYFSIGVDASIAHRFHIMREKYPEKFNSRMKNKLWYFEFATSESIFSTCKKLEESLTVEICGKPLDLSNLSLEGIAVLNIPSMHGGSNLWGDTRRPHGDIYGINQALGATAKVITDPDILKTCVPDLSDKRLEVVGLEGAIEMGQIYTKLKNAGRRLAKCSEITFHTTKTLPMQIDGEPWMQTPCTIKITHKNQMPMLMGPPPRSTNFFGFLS
DGKζ, sequence (Q13574 other isoform, or with tags, fused parts or gaps): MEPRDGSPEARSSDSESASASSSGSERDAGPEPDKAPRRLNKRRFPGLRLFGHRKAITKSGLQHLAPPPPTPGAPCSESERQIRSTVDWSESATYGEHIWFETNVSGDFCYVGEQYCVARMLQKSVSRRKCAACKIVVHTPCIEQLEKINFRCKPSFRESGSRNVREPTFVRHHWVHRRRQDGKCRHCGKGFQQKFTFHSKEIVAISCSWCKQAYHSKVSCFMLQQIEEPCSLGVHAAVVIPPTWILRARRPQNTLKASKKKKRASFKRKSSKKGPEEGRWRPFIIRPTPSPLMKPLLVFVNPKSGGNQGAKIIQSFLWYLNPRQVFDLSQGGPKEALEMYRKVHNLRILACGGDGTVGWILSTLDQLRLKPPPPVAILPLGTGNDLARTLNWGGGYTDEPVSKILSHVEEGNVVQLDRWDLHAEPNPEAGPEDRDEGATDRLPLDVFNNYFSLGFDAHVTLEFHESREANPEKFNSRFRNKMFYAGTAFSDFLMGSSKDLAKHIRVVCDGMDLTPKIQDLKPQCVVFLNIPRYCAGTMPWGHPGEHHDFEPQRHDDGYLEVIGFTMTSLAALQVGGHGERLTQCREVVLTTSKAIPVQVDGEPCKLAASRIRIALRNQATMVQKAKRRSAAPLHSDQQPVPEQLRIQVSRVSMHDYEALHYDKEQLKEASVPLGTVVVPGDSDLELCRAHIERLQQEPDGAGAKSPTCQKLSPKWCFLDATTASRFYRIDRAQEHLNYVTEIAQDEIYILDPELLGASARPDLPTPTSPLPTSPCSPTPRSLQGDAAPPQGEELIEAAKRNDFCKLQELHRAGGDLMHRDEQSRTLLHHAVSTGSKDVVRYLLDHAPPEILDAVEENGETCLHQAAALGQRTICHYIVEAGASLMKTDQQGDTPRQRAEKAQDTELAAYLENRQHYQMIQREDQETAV

As to `CC[C@H]1CN(C(C)c2ccc(F)cc2C2CC2)[C@H](CC)CN1c1cc(=O)n(C)c2cn(CC#N)nc12` (stereo partly shown) [Compound A175], the IC50 (commonly the concentration needed to halve the response being measured) on DGKζ is 0.305 µM; on DGKα, above 10 µM.
`CC[C@H]1CN(C(C)c2cc3ccccc3n2CC)[C@H](CC)CN1c1cc(=O)n(C)c2cn(CC#N)nc12` (stereo partly shown) [Compound A176]: the half-inhibitory concentration (IC50) at DGKζ was 0.093 µM; on DGKα it was 5.67 µM.
`CC(c1ccc2nccnc2c1)N1CCN(c2cc(=O)n(C)c3cn(CC#N)nc23)C[C@@H]1C` (stereo partly shown) [Compound A178]: the IC50 is 6.9 µM on DGKζ and above 10 µM against DGKα.
On to `CCC1CN(c2c(Br)c(=O)n(C)c3cn(CC#N)nc23)CCN1[C@@H](C)c1ccc2nccnc2c1` (stereo partly drawn) [Compound A179a, 2-(6-bromo-7-((2S,5R)-3-ethyl-4-(1-(quinoxalin-6-yl)ethyl)piperazin-1-yl)-4-methyl-5-oxo-4,5-dihydro-2H-pyrazolo[4,3-b]pyridin-2-yl)acetonitrile], for which the results for the IC50 at DGKζ and on DGKα were 7.88 µM and above 10 µM, respectively.
On to `CC(c1ccc2nccnc2c1)N1CCN(c2cc(=O)n(C)c3cn(CC#N)nc23)CC1CO` (stereo not shown) [Compound A184], for which the IC50 on DGKζ is 6.01 µM; on DGKα it was above 10 µM.
Take `CC#CCn1cc2c(n1)c(N1C[C@@H](CC)N(C(C)c3nc4ccccc4n3CC)C[C@@H]1CC)cc(=O)n2C` (stereo partly shown) [Compound A186]: the half-inhibitory concentration (IC50) at DGKζ came out at 0.059 µM; at DGKα, 6.37 µM.
In the case of `CC[C@H]1CN(C(C)c2ccc(F)cc2C(C)O)[C@H](CC)CN1c1cc(=O)n(C)c2cn(CC#N)nc12` (stereo partly shown) [Compound A188], the IC50 at DGKζ is 0.786 µM; at DGKα, above 10 µM.
On to `CC[C@@H]1CN(c2c(C#N)c(=O)n(CC#N)c3cn(CC#N)nc23)[C@@H](C)CN1C(C)c1ccc2nccnc2c1` (stereo partly drawn) [Compound A189, 2,2′-(6-cyano-7-((2S,5R)-5-ethyl-2-methyl-4-(1-(quinoxalin-6-yl)ethyl)piperazin-1-yl)-5-oxo-2H-pyrazolo[4,3-b]pyridine-2,4(5H)-diyl)diacetonitrile], for which the values for the 50% inhibitory concentration (IC50) at DGKζ and against DGKα were 3.1 µM and above 10 µM, respectively.
Take `CCCn1c(C(C)N2C[C@H](CC)N(c3cc(=O)n(C)c4cn(CC#N)nc34)C[C@H]2CC)nc2ccccc21` (stereo partly drawn) [Compound A192, 2-(7-((2S,5R)-2,5-diethyl-4-(1-(1-propyl-1H-benzo[d]imidazol-2-yl)ethyl)piperazin-1-yl)-4-methyl-5-oxo-4,5-dihydro-2H-pyrazolo[4,3-b]pyridin-2-yl)acetonitrile]: the IC50 at DGKζ was 0.059 µM; on DGKα, above 10 µM.
Regarding `CC[C@H]1CN(C(C)c2nc3ccccc3n2C(C)C)[C@H](CC)CN1c1cc(=O)n(C)c2cn(CC#N)nc12` (stereo partly shown) [Compound A193], the 50% inhibitory concentration (IC50) at DGKζ is 5.73 µM; at DGKα, above 10 µM.
Consider `CCc1cc(F)ccc1C(C)N1C[C@H](CC)N(c2cc(=O)n(C)c3cn(CC#N)nc23)C[C@H]1CC` (stereo partly drawn) [Compound A205, 2-(7-((2S,5R)-2,5-diethyl-4-(1-(2-ethyl-4-fluorophenyl)ethyl)piperazin-1-yl)-4-methyl-5-oxo-4,5-dihydro-2H-pyrazolo[4,3-b]pyridin-2-yl)acetonitrile], for which the results for the IC50 at DGKζ and on DGKα were 0.151 µM and 63.7 µM, respectively.
Consider `CC[C@@H]1CN(c2cc(=O)n(C)c3cn(CC#N)nc23)[C@@H](CC)CN1C(=O)c1cccc(C(F)(F)F)c1` [Compound A206, 2-(7-((2S,5R)-2,5-diethyl-4-(3-(trifluoromethyl)benzoyl)piperazin-1-yl)-4-methyl-5-oxo-4,5-dihydro-2H-pyrazolo[4,3-b]pyridin-2-yl)acetonitrile], for which the figures for the IC50 at DGKζ and against DGKα were 2.27 µM and 2.59 µM, respectively.
Consider `CC[C@H]1CN(C(C)c2cccc(=O)n2CC)[C@H](CC)CN1c1cc(=O)n(C)c2cn(CC#N)nc12` (stereo partly shown) [Compound A207], for which the IC50 at DGKζ is 4.05 µM; against DGKα it was above 10 µM.
For `CC[C@H]1CN(C(C)c2cn(CC)c(C)n2)[C@H](CC)CN1c1cc(=O)n(C)c2cn(CC#N)nc12` (stereo partly shown) [Compound A208], the IC50 on DGKζ and against DGKα was above 10 µM each time.
